Here are results for 15 compounds from patent US8609656B2, “Heteroarylphenylurea derivative” (Chugai Seiyaku Kabushiki Kaisha, priority 2004, dated 2013).

In brackets after ≈: the same amount, converted by molar mass. Structures can show the parent of a compound that is named as a salt.

For orientation: solubility means how much of the substance goes into solution per volume. A low value points to little dissolved substance.

Data set [1] concerns VEGF non-dependent human umbilical vein endothelial cells (HUVEC). In words: Cell growth inhibition test, VEGF non-dependent HUVEC. As to conditions: 72 hours, WST-1, read-out: HUVEC (VEGF Nondependence), 50% Growth Inhibition Concentration (IC50 value). The class given is cell-based. Here is the method:
(§1) Cell Growth Inhibition Test
(§2) With respect to the compounds relating to the present invention and the known compound (BAY 43-9006), cell growth inhibition activity was measured.
(§3) A sample compound was in-series diluted with dimethyl sulfoxide, and then was 1/50 diluted with a Ca^2+- and Mg^2+-free phosphate-bufferized physiological saline and its 20 μL was poured to a 96-well plate. […] Each of these cell suspensions was dividedly poured to the sample added plate in 180 μL/well and cultured in a 5% carbon dioxide incubator at 37° C. After 72 hours, 20 μL of WST-(HCT 116, a product of Dojin) or WST-1 (HUVEC, a product of Roche diagnostics) was added thereto to each well and the absorbance at 450 nm (reference wavelength: 650 nm) was measured. From the growth inhibition ratio of addition of the sample compound to no-addition of the sample compound as a reference, the 50% growth inhibition IC50) of the sample compound was calculated.
(§4) With respect to the group of representative compounds of the present invention, the IC50 values of HCT 116 and HUVEC (VEGF nondependent growth and VEGF dependent growth) are shown in Tables 5-1 to 5-3.
For orientation: Tetrazolium dyes change colour on reduction, which living cells bring about.

Another data set relates to VEGF dependent HUVEC. In words: Cell growth inhibition test, VEGF dependent HUVEC. The following applies: Homo sapiens, 20 ng/mL of VEGF, 72 hours, WST-1, read-out: HUVEC (VEGF Dependence), 50% Growth Inhibition Concentration (IC50 value). The class given is cell-based. The procedure:
as §1, §2, §3, §4

Data set [2] has as its system human colorectal cancer cell strain HCT 116. As to the kind of experiment: Cell growth inhibition test, HCT 116. The format is cell-based. The following applies: 72 hours, read-out: HCT116, 50% Growth Inhibition Concentration (IC50 value). Here is the method: as §1, §2, §3, §4
A short description of data set [3]: Solubility to fasted state simulated intestinal fluid. The format is physicochemical. The following applies: fassif, kinetic from dmso stock, fasted state simulated intestinal fluid (pH 6.5), 37° C. Here is the method:
Method of Measuring Solubility to Fasted State Simulated Intestinal Fluid
To a 96-well plate, 2 μL of a dimethyl sulfoxide solution of the compound relating to the present invention or that of the compound BAY 43-9006 was poured at one time, respectively, and fasted state simulated intestinal fluid (pH 6.5) was added 200 μL by 200 μL, and the plate was shaken at 37° C. for 20 hours. The solution was filtered with a membrane filter and 101 μL of the filtrate was transferred to an UV plate, and 100 μL of a mixed solution of ethanol:water=2:1 was added thereto. On the other hand, as a standard solution, 2 μL of a dimethyl sulfoxide solution was added to a solution containing 4 μL of dimethyl sulfoxide, 400 μL of ethanol and 200 μL of water and the obtained solution was transferred 101 μL by 101 μL to the UV plate and to this UV plate, the simulated fasting bile-containing intestinal juice (pH 6.5) was added 100 μL by 100 μL. The solubility was calculated by the following equation. Solubility=(absorbance of sample solution-blank)/(absorbance of standard solution-blank)×[…]
165 μL is a concentration of the standard solution.
Composition of Fasted State Simulated Intestinal Fluid
Fasted state simulated intestinal fluid was prepared in accordance with E. Galia et al., Pharm. Res., 698, 1998.
To about 90 mL of water, 161 mg of taurocholic acid, 59 mg of L-α-phosphatidylcholine, 0.39 g of potassium dihydrogenphosphate and 0.77 g of potassium chloride were added and the pH of the mixture solution […] and the mixture solution was filtered with a membrane filter.

Data set [4] concerns the target T1, recombinant Raf-1 protein (activated type GST-Raf-1) (Homo sapiens, UniProt P04049).
T1 construct: fused on or other part: GST tag fused to Raf-1
In words: RAF-1 enzyme inhibition test (33P incorporation into MEK 1 protein). As to conditions: 10 μM ATP, GST-MEK1 substrate, 30° C., 45 minutes; read-out: Raf-1 Enzyme Inhibition, 50% Enzyme Inhibition Concentration (IC50 value). The class given is biochemical. Here is the method: RAF-1 Enzyme Inhibition Test
With respect to the compounds relating to the present invention and the known compound (BAY 43-9006):
[drawing 660] the Raf-1 protein inhibition activity was measured. The enzymatic reaction was measured by incorporation of ^33P-phosphoric acid into MEK 1 protein by a recombinant Raf-1 protein. The activity was measured by preparing 50 μL of a reaction solution containing a dimethyl sulfoxide solution of the compound relating to the present invention or the compound BAY 43-9006 at a varied concentration [as the final concentration, the reaction solution containing […] of TRIS hydrochloric buffer (pH 7.5), 1 mM of dithiothreitol, 100 mM of sodium chloride, 10 mM of potassium fluoride, 1 mM of sodium vanadate, 10 mM of magnesium chloride, 10 μM of adenosine triphosphate (ATP, containing ^33P-ATP of 12580Bq), 2 μg of GST-MEK1 and 25 ng of an activated type GST-Raf-1]; keeping the reaction solution at 30° C. for 45 minutes; adding 100% trichloroacetic acid to the reaction solution in an amount twice the volume of the reaction solution to precipitate a proteinous component; recovering the precipitate on a glass filter; and measuring the radioactivity of the recovered product. The 50% inhibition concentration (IC50) was obtained from the inhibition ratio to a sample-free reference.
The compound BAYT 43-9006 was prepared on the basis of the description (Example 41) of WO 00/42012.

T1 sequence (P04049 349-648 limits assumed): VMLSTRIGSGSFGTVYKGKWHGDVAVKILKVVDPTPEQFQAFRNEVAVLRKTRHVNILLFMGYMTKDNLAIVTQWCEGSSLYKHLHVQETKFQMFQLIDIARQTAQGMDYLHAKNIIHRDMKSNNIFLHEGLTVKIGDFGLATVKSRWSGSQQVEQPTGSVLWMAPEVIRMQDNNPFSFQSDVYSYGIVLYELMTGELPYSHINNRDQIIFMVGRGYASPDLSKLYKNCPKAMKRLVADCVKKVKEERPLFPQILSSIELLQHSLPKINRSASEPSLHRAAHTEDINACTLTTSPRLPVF

Consider `COCCNc1ncnc2c1ncn2-c1ccc(NC(=O)Nc2ccc(Cl)c(C(F)(F)F)c2)cc1.Cl` [Table 1, Compound 35, 1-(4-Chloro-3-(trifluoromethyl)phenyl)-3-{4-[6-(2-methoxy-ethylamino)purin-9-yl]phenyl}urea hydrochloride], for which the IC50 in data set [1] came to 2400 nM; in the data set on VEGF dependent HUVEC, 460 nM; in data set [2], 2800 nM. The compound further yielded a solubility at 20 h in data set [3] of 24 µg/mL.
As for `CC(C)C[C@H](N)C(=O)Nc1ncnc2c1ncn2-c1ccc(NC(=O)Nc2ccc(Cl)c(C(F)(F)F)c2)cc1` [Table 1, Compound 96, (S)-2-Amino-4-methyl-pentanoic acid 9-{4-[3-(4-chloro-3-(tri-fluoromethyl)phenyl)ureido}-phenyl)-9H-purin-6-yl)amide hydrochloride], the IC50 in data set [4] was determined as 44 nM; in data set [1], 3200 nM; in the data set with VEGF dependent HUVEC, 91 nM; in data set [2], 2200 nM. Moreover, the solubility at 20 h in data set [3] is 102 µg/mL.
Take `CNc1ncnc2c1ncn2-c1ccc(NC(=O)Nc2cccc(C(F)(F)F)c2)cc1` [Table 2, Compound 19, 1-[4-(6-(Methylamino)purin-9-yl)phenyl]-3-(3-(trifluoro-methyl)phenyl)urea]: the IC50 in data set [1] came to 1900 nM; in the data set with VEGF dependent HUVEC it was 57 nM; in data set [2], 1100 nM.
Regarding `CN(C)/C=N\c1ncnc2c1ncn2-c1ccc(NC(=O)Nc2ccc(Cl)c(C(F)(F)F)c2)cc1` [Table 1, Compound 95, N′-(9-{4-[3-(4-Chloro-3-(tri-fluoromethyl)phenyl)ureido]-phenyl}-9H-purin-6-yl}-N,N-dimethylformamidine hydro-chloride], the IC50 in data set [4] was determined as 42 nM; in data set [1], 2600 nM; with VEGF dependent HUVEC, 470 nM; in data set [2], 3100 nM.
For the compound `O=C(Nc1ccc(-n2cnc3cnccc32)cc1)Nc1ccc(Cl)c(C(F)(F)F)c1` [Table 1, Compound 1, 1-(4-chloro-3-(trifluoromethyl)phenyl)-3-(4-imidazo[4,5-c]pyridin-1-ylphenyl)urea], the IC50 amounted to 2100 nM in data set [1], 92 nM in the data set on VEGF dependent HUVEC and 1200 nM in data set [2].
As for `CNc1ncnc2c1ncn2-c1ccc(NC(=O)Nc2cc(CCCN3CCOCC3)cc(C(F)(F)F)c2)cc1` [Table 3, Compound 48, 1-[4-(6-(Methylamino)purin-9-yl)phenyl]-3-[3-(3-morpholin-4-yl-propyl)-5-(trifluoromethyl)phenyl]-urea], the IC50 was 3200 nM in data set [1], 39 nM with VEGF dependent HUVEC and 2500 nM in data set [2].
In the case of `Nc1ncnc2c1ncn2-c1ccc(NC(=O)Nc2cc(Br)cc(C(F)(F)F)c2)cc1` [Table 2, Compound 43], the IC50 was 3800 nM in data set [1], 150 nM in the data set with VEGF dependent HUVEC and 1800 nM in data set [2].
`N[C@@H](CCC(=O)Nc1ncnc2c1ncn2-c1ccc(NC(=O)Nc2ccc(Cl)c(C(F)(F)F)c2)cc1)C(=O)O` [Table 1, Compound 104, (S)-2-Amino-4-(9-{4-[3-(4-chloro-3-(trifluoromethyl)-phenyl)ureido]phenyl}-9H-purin-6-ylcarbamoyl)butanoic acid hydrochloride]: the IC50 came to 74 nM in data set [4], 7400 nM in data set [1], 930 nM with VEGF dependent HUVEC and 3900 nM in data set [2].
Regarding `CNc1ncnc2c1ncn2-c1ccc(NC(=O)Nc2ccc(OC3CCN(C)CC3)c(C(F)(F)F)c2)cc1` [Table 2, Compound 62, 1-[4-(6-(Methylamino)purin-9-yl)-phenyl]-3-[4-(1-methylpiperidin-4-yloxy)-3-(trifluoromethyl)phenyl]-urea], the IC50 in data set [1] is 900 nM; with VEGF dependent HUVEC, 11 nM; in data set [2] it was 700 nM. Also, the solubility at 20 h in data set [3] was 35 µg/mL (≈ 64.7 µM).
For the compound `CNc1ncnc2c1ncn2-c1ccc(NC(=O)Nc2ccc(CN3CC(C)NC(C)C3)c(C(F)(F)F)c2)cc1` (stereo not drawn) [Table 3, Compound 46, 1-[4-(3,5-Dimethyl-piperazin-1-ylmethyl)-3-(trifluoromethyl)phenyl]-3-[4-(6-(methylamino)purin-9-yl)phenyl]urea], the IC50 worked out at 41 nM in data set [4], 4200 nM in data set [1], 290 nM with VEGF dependent HUVEC and 2800 nM in data set [2]. The solubility at 20 h in data set [3] is 23 µg/mL (≈ 41.5 µM).
Take `CNc1ncnc2c1ncn2-c1ccc(NC(=O)Nc2ccc(OCCOC)c(C(F)(F)F)c2)cc1` [Table 3, Compound 41, 1-[4-(2-Methoxy-ethoxy)-3-(trifluoromethyl)phenyl]-3-[4-(6-(methylamino)purin-9-yl)phenyl]urea]: the IC50 in data set [1] stood at 900 nM; in the data set with VEGF dependent HUVEC, 76 nM; in data set [2], 800 nM.
Consider `CNc1ncnc2c1ncn2-c1ccc(NC(=O)Nc2ccc(CCCN3CCOCC3)c(C(F)(F)F)c2)cc1` [Table 2, Compound 76, 1-[4-(6-(Methylamino)purin-9-yl)phenyl]-3-[4-[3-morpholin-4-yl-propyl]-3-(trifluoromethyl)phenyl]-urea], for which the IC50 was found to be 1000 nM in data set [1], 57 nM with VEGF dependent HUVEC and 900 nM in data set [2].
Regarding `CNc1ncnc2c1ncn2-c1ccc(NC(=O)Nc2ccc(N(C)C)c(C(F)(F)F)c2)cc1` [Table 2, Compound 42, 1-(4-Dimethylamino-3-(trifluoromethyl)phenyl)-3-[4-(6-(methylamino)purin-9-yl)phenyl]urea], the results for the IC50 (in data set [1]; with VEGF dependent HUVEC; in data set [2]) were 4000 nM, 56 nM and 1800 nM, respectively.
Take `CNc1ncnc2c1ncn2-c1ccc(NC(=O)Nc2ccc(CN3CCOCC3)c(C(F)(F)F)c2)cc1` [Table 2, Compound 47, 1-[4-(6-(Methylamino)purin-9-yl)phenyl]-3-(4-morpholin-4-ylmethyl-3-(trifluoromethyl)phenyl)urea]: the IC50 was 700 nM in data set [1], 29 nM in the data set on VEGF dependent HUVEC and 900 nM in data set [2].
As to `CNc1ncnc2c1ncn2-c1ccc(NC(=O)Nc2ccc(OCCN(C)C)c(C(F)(F)F)c2)cc1` [Table 2, Compound 52, 1-[4-(2-Dimethylaminoethoxy)-3-(trifluoromethyl)phenyl]-3-[4-(6-(methylamino)purin-9-yl)phenyl]urea], the results for the IC50 (in data set [1]; in the data set on VEGF dependent HUVEC; in data set [2]) were 3800 nM, 270 nM and 3800 nM, respectively. In data set [3], this compound had a solubility at 20 h of 126 µg/mL (≈ 245 µM).
